Assay results published in US11236078B2, “Heterocyclic inhibitors of the sodium channel” (priority 2014, dated 2022).

Columns and labels:
Type in all cases: cell-based
[1] = target: T1, human Nav1.7 (hNav1.7) (Homo sapiens, UniProt Q15858); experiment: hNav1.7 slow inactivation block, manual patchclamp; conditions: HEK 293F cells stably expressing hNav1.7, slow inactivation induced in approximately 50% of channels
T1 construct: expressed in transfected cells
From the text: (§1) The generation of HEK 293F cell lines stably expressing human Nav1.7 (h Nav1.7), human Nav1.5 (hNav1.5) and rat Nav1.2 (r Nav1.2) was achieved by subcloning SCN9A, SCN5A, and SCN2A genes into inducible expression vectors followed by transfection into target cells using standard techniques. In the case of h Nav1.7, an expression vector encoding the human Navβ1 auxiliary subunit gene, SCN1B, was co-transfected with the expression vector bearing the SCN9A gene. Clones were selected using appropriate selection agents (0.3 mg/mL Zeocin and 0.8 mg/mL Geneticin) and maintained in Dulbecco's Modified Eagle medium, 10% fetal bovine serum, 1% non-essential amino acids to ˜80% confluence at 37° C. in a humidified incubator with 95% atmosphere and 5% CO2.
(§2) On the day of each experiment, cells that were grown to 80% confluence in a T75 flask were harvested for use on PatchXpress (Molecular Devices, CA, USA). Following a recovery period at 37° C. in a humidified incubator with 95% atmosphere and 5% CO2 in Dulbecco's Modified Eagle Medium, the media was replaced with an external recording solution containing (in mM): 90 TEACl, 50 NaCl, 1.8 CaCl2, 1 MgCl2, 10 HEPES, 10 glucose, adjusted to pH 7.4 with TEAOH and 300 mOsm with sucrose. The internal recording solution contained (in mM): 129 CsF, 2 MgCl2, 11 EGTA, 10 HEPES, 6 NaCl, 3 Na2ATP adjusted to pH 7.2 with CsOH and 280 mOsm with sucrose. The automated liquid handling facility of PatchXpress dispensed cells and added compound. Modulation of Nav1.7 channels by compounds was assessed by promoting the channels into the inactivated state using a conditioning voltage pulse of variable amplitude, followed by a brief hyperpolarizing pulse with a subsequent depolarized voltage step to measure the current amplitude in the presence and absence of compound.
(§3) In some cases, the potency of compounds was measured using either the Patchliner automated patch clamp platform (Nanion) or manual patch clamp techniques. Both approaches allowed the compounds to be characterized based upon the ability of a compound to modulate use- and/or state-dependence across human Nav1.7 (hNav1.7), human Nav1.5 (hNav1.5) and rat Nav1.2 (rNav1.2). The potency data is tabulated in Table 2 and is represented by six data fields. Three of the six fields represent potency data measured with the Patchliner automated platform under varying use- and state-dependent electrophysiology protocols similar to the PatchXpress protocols detailed above. For example, the second data column describes the potency of compounds in their ability to block 50% of Nav1.7 channels when the channel is repetitively activated by depolarizing voltage potentials to induce slow inactivation in approximately 50% of channels (Table 2: h Nav1.7: IC50 Slow Inactivation Block, Automated Patchclamp). The next three data fields describe the data generated from manual patchclamp electrophysiology measurements using similar methods to those employed for automated patchclamp studies.

[2] = target: T1, human Nav1.7 (hNav1.7); experiment: hNav1.7 slow inactivation block, automated patchclamp; conditions: HEK 293F cells stably expressing hNav1.7, slow inactivation induced in approximately 50% of channels
From the text: as §1, §2, §3

[3] = target: T2, rat Nav1.2 (rNav1.2) (Rattus norvegicus, UniProt P04775); experiment: rNav1.2 slow inactivation block, manual patchclamp; conditions: HEK 293F cells stably expressing rNav1.2
T2 construct: expressed in transfected cells
T2 sequence (P04775 whole entry): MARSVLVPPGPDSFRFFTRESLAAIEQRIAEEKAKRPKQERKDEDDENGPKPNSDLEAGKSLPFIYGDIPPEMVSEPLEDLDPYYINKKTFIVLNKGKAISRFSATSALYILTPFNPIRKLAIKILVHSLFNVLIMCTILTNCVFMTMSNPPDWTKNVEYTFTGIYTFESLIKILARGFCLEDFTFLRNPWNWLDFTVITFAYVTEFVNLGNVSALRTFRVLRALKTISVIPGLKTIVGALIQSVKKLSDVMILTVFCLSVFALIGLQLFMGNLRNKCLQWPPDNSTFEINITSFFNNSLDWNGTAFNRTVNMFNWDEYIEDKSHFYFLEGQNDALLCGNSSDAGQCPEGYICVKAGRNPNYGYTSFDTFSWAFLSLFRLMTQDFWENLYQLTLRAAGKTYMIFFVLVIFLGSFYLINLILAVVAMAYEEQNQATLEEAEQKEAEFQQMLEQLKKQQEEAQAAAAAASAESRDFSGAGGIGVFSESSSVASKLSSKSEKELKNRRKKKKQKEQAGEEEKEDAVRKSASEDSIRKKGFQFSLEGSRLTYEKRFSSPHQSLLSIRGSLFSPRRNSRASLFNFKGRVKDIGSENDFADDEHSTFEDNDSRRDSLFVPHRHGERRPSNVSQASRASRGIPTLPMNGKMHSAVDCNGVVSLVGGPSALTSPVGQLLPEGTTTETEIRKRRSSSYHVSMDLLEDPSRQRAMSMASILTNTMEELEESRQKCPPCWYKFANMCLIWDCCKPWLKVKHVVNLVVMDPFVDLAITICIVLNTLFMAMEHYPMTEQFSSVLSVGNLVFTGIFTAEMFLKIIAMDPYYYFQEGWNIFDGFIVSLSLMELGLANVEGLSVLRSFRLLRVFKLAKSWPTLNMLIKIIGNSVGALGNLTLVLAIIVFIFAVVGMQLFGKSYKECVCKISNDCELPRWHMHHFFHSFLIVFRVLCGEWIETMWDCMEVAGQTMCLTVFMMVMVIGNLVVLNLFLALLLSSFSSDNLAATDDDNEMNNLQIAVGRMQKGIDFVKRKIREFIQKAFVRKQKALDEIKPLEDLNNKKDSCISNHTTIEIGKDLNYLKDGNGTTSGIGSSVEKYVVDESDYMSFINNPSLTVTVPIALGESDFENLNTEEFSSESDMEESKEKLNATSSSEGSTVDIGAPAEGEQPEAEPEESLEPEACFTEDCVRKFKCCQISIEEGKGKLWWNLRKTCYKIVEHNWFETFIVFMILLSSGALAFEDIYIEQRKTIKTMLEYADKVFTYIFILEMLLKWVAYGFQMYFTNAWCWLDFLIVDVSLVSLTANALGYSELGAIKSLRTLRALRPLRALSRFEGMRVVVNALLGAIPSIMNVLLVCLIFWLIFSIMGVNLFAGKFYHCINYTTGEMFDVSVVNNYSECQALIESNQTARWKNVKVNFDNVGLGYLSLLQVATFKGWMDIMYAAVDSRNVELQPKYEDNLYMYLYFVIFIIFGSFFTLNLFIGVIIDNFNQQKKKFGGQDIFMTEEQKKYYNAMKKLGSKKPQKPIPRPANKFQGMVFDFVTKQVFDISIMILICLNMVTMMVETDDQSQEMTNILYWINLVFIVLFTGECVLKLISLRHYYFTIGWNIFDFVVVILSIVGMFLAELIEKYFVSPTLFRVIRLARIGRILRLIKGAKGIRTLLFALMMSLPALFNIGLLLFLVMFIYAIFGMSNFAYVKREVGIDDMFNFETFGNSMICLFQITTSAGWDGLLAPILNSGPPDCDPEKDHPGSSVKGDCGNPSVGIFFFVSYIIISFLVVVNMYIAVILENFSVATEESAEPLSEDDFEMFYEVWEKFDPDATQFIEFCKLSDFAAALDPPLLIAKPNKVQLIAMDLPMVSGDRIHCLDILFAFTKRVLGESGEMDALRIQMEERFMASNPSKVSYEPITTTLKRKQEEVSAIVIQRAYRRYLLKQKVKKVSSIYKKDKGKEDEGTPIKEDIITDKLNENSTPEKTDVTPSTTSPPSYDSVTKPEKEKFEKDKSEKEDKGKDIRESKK
From the text: as §1, §2, §3

[4] = target: T2, rat Nav1.2 (rNav1.2); experiment: rNav1.2 slow inactivation block, automated patchclamp; conditions: HEK 293F cells stably expressing rNav1.2
From the text: as §1, §2, §3

T1 sequence (Q15858 whole entry): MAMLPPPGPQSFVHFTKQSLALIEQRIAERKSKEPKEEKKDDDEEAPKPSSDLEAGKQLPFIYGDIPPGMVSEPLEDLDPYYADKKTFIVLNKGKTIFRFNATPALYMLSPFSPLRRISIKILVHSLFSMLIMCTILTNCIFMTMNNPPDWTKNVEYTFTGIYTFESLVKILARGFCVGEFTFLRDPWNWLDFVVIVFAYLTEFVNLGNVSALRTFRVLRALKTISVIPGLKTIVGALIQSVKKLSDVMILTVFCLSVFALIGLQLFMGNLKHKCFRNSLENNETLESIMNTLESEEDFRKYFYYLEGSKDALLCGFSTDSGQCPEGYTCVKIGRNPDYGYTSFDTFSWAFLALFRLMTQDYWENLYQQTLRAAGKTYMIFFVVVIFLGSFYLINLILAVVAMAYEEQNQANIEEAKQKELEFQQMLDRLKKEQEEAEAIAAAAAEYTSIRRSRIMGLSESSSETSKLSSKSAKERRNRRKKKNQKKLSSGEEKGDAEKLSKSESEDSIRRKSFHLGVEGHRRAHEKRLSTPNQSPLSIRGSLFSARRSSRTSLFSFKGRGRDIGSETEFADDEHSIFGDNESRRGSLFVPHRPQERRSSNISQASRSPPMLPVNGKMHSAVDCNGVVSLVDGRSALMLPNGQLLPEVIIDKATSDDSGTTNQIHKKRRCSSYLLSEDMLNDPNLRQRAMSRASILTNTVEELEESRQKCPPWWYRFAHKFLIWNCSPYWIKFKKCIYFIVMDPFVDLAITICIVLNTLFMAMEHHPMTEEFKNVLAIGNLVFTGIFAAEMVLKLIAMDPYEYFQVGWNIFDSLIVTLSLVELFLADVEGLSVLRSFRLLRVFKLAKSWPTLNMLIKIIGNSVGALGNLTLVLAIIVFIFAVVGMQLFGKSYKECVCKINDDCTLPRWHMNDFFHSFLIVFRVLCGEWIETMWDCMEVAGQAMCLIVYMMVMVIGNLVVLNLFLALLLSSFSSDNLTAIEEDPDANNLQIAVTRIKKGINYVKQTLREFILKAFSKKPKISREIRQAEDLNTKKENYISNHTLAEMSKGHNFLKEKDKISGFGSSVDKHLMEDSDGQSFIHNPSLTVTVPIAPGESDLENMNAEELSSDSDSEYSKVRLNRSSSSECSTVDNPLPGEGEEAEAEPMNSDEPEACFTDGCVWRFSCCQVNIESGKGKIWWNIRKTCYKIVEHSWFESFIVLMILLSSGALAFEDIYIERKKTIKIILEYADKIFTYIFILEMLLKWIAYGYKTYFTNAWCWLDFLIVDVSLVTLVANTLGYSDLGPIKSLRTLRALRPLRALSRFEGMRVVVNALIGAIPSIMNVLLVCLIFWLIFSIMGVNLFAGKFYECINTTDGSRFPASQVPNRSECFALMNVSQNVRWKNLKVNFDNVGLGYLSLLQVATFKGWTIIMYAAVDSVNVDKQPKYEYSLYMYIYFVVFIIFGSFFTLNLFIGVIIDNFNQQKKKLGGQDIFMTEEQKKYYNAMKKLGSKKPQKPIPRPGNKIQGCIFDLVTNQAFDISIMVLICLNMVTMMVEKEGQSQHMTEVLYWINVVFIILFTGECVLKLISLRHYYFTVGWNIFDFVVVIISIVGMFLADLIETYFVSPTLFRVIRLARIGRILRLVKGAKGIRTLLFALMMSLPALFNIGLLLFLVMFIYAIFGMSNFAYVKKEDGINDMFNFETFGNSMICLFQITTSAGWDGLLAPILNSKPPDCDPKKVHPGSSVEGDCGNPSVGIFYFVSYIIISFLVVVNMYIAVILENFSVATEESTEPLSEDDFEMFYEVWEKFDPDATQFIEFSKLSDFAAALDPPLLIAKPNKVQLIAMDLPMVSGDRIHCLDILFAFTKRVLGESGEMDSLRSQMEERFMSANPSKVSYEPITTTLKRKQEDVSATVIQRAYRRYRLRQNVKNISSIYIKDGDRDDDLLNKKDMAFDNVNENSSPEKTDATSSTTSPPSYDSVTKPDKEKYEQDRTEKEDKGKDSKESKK
T1 sequence (Q07699 19-218 partner): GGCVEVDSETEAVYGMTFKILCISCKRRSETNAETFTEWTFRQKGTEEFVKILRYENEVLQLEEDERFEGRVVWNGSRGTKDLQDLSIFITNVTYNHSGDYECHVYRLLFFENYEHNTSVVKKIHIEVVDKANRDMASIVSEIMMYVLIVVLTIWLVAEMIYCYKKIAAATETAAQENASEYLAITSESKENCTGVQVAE

| SMILES | IC50 [1] | IC50 [2] | IC50 [3] | IC50 [4] |
| --- | --- | --- | --- | --- |
| O=C(NCc1cc(F)c(Oc2ccccc2)cc1F)[C@@H]1CCCN1 [Compound 3, (2S)-N-[(2,5-difluoro-4-phenoxyphenyl)methyl]pyrrolidine-2-carboxamide] | 1340 nM | 5780 nM | 1890 nM |  |
| O=S(=O)(Nc1ncns1)c1ccc(Oc2cc(C(F)(F)F)cc(C(F)(F)F)c2)cc1 [Compound 6, 4-[3,5-bis(trifluoromethyl)phenoxy]-N-(1,2,4-thiadiazol-5-yl)benzene-1-sulfonamide] | ~39000 nM |  | > 10000 nM |  |
| O=S(=O)(Nc1nncs1)c1ccc(Oc2cc(C(F)(F)F)cc(C(F)(F)F)c2)cc1 [Compound 7, 4-[3,5-bis(trifluoromethyl)phenoxy]-N-(1,3,4-thiadiazol-2-yl)benzene-1-sulfonamide] |  | > 32000 nM |  |  |
| O=S(=O)(Nc1nncs1)c1cc(F)c(Oc2cc(C(F)(F)F)cc(C(F)(F)F)c2)cc1F [Compound 8, 4-[3,5-bis(trifluoromethyl)phenoxy]-2,5-difluoro-N-(1,3,4-thiadiazol-2-yl)benzene-1-sulfonamide] |  | > 32000 nM |  |  |
| O=S(=O)(Nc1nccs1)c1ccc(Oc2cc(C(F)(F)F)cc(C(F)(F)F)c2)cc1 [Compound 9, 4-[3,5-bis(trifluoromethyl)phenoxy]-N-(1,3-thiazol-2-yl)benzene-1-sulfonamide] |  | ~29500 nM |  |  |
| N#Cc1cc(S(=O)(=O)Nc2nncs2)ccc1Oc1cc(C(F)(F)F)cc(C(F)(F)F)c1 [Compound 10, 4-[3,5-bis(trifluoromethyl)phenoxy]-3-cyano-N-(1,3,4-thiadiazol-2-yl)benzene-1-sulfonamide] | > 10000 nM | > 32000 nM | > 10000 nM |  |
| O=S(=O)(Nc1ncns1)c1ccc(Oc2cc(C(F)(F)F)cc(C(F)(F)F)c2)c(F)c1 [Compound 11, 4-[3,5-bis(trifluoromethyl)phenoxy]-3-fluoro-N-(1,2,4-thiadiazol-5-yl)benzene-1-sulfonamide] | > 3200 nM | > 32000 nM | > 10000 nM |  |
| O=C(Nc1ncns1)c1cc(F)c(Oc2cc(C(F)(F)F)cc(C(F)(F)F)c2)cc1F [Compound 12, 4-[3,5-bis(trifluoromethyl)phenoxy]-2,5-difluoro-N-(1,2,4-thiadiazol-5-yl)benzamide] | ~5590 nM | > 32000 nM | > 3200 nM |  |
| CS(=O)(=O)NC(=O)c1cc(F)c(Oc2cc(C(F)(F)F)cc(C(F)(F)F)c2)cc1F [Compound 13, 4-[3,5-bis(trifluoromethyl)phenoxy]-2,5-difluoro-N-methanesulfonylbenzamide] | ~10300 nM | 19200 nM | > 10000 nM |  |
| N#Cc1cc(S(=O)(=O)Nc2ncns2)ccc1Oc1cc(C(F)(F)F)cc(C(F)(F)F)c1 [Compound 14, 4-[3,5-bis(trifluoromethyl)phenoxy]-3-cyano-N-(1,2,4-thiadiazol-5-yl)benzene-1-sulfonamide] | 4940 nM | ~49000 nM | > 10000 nM | > 32000 nM |
| O=C(Nc1nncs1)c1cc(F)c(Oc2cc(C(F)(F)F)cc(C(F)(F)F)c2)cc1F [Compound 15, 4-[3,5-bis(trifluoromethyl)phenoxy]-2,5-difluoro-N-(1,3,4-thiadiazol-2-yl)benzamide] | 4960 nM | > 32000 nM | 4320 nM |  |
| O=S(=O)(Nc1ncns1)c1ccc(Oc2cc(C(F)(F)F)cc(C(F)(F)F)c2)c(Cl)c1 [Compound 16, 4-[3,5-bis(trifluoromethyl)phenoxy]-3-chloro-N-(1,2,4-thiadiazol-5-yl)benzene-1-sulfonamide] |  | 21100 nM | > 10000 nM | > 32000 nM |
| O=S(=O)(Nc1ccncn1)c1cc(F)c(Oc2cc(C(F)(F)F)cc(C(F)(F)F)c2)cc1F [Compound 18, 4-[3,5-bis(trifluoromethyl)phenoxy]-2,5-difluoro-N-(pyrimidin-4-yl)benzene-1-sulfonamide] | ~9760 nM | > 32000 nM |  | > 32000 nM |
| O=C(NCc1cc(F)c(Oc2cc(C(F)(F)F)cc(C(F)(F)F)c2)cc1F)c1nncs1 [Compound 19, N-({4-[3,5-bis(trifluoromethyl)phenoxy]-2,5-difluorophenyl}methyl)-1,3,4-thiadiazole-2-carboxamide] | 1380 nM | ~10200 nM | ~1250 nM | 5660 nM |
| CS(=O)(=O)NCc1cc(F)c(Oc2cc(C(F)(F)F)cc(C(F)(F)F)c2)cc1F [Compound 20, N-({4-[3,5-bis(trifluoromethyl)phenoxy]-2,5-difluorophenyl}methyl)methane-sulfonamide] | ~1260 nM | 5780 nM | ~1320 nM | 4260 nM |

Next, values leading:

| IC50 [1] | IC50 [2] | IC50 [3] | IC50 [4] | SMILES |
| --- | --- | --- | --- | --- |
| > 3200 nM | > 32000 nM |  | > 32000 nM | O=C(Cc1cc(F)c(Oc2cc(C(F)(F)F)cc(C(F)(F)F)c2)cc1F)Nc1ncns1 [Compound 22, 2-{4-[3,5-bis(trifluoromethyl)phenoxy]-2,5-difluorophenyl}-N-(1,2,4-thiadiazol-5-yl)acetamide] |
| > 10000 nM | > 32000 nM | > 10000 nM | > 32000 nM | O=C(O)c1cc(Oc2cc(F)c(S(=O)(=O)Nc3ncns3)cc2F)cc(C(F)(F)F)c1 [Compound 23, 3-{2,5-difluoro-4-[(1,2,4-thiadiazol-5-yl)sulfamoyl]phenoxy}-5-(trifluoromethyl)benzoic] |
| ~19200 nM | ~41800 nM |  | > 32000 nM | CNC(=O)c1cc(Oc2cc(F)c(S(=O)(=O)Nc3ncns3)cc2F)cc(C(F)(F)F)c1 [Compound 25, 3-{2,5-difluoro-4-[(1,2,4-thiadiazol-5-yl)sulfamoyl]phenoxy}-N-methyl-5-(trifluoromethyl)benzamide] |
| ~16200 nM | > 32000 nM |  |  | CCNC(=O)c1cc(Oc2cc(F)c(S(=O)(=O)Nc3ncns3)cc2F)cc(C(F)(F)F)c1 [Compound 35, 3-{2,5-difluoro-4-[(1,2,4-thiadiazol-5-yl)sulfamoyl]phenoxy}-N-ethyl-5 (trifluoromethyl)benzamide] |
| ~6930 nM | ~21700 nM |  |  | O=C(c1cc(Oc2cc(F)c(S(=O)(=O)Nc3ncns3)cc2F)cc(C(F)(F)F)c1)N1CCCC1 [Compound 39, 2,5-difluoro-4-{3-[(pyrrolidin-1-yl)carbonyl]-5-(trifluoromethyl)phenoxy}-N-(1,2,4-thiadiazol-5-yl)benzene-1-sulfonamide] |
| > 10000 nM | > 32000 nM |  |  | COCc1nsc(NS(=O)(=O)c2cc(F)c(Oc3cc(OC)cc(C(F)(F)F)c3)cc2F)n1 [Compound 44, 2,5-difluoro-4-[3-methoxy-5-(trifluoromethyl)phenoxy]-N-[3-(methoxymethyl)-1,2,4-thiadiazol-5-yl]benzene-1-sulfonamide] |
| 741 nM | 5130 nM | 744 nM |  | O=C(NCc1cc(-c2cc(C(F)(F)F)cc(C(F)(F)F)c2)cc(C(F)(F)F)c1)[C@@H]1C[C@H](F)CN1 [Compound 54, (2S,4S)-4-fluoro-N-((3′,5,5′-tris(trifluoromethyl)-[1,1′-biphenyl]-3-yl)methyl)pyrrolidine-2-carboxamide] |
| 2680 nM |  | 2370 nM |  | O=C(NCc1cccc(-c2cc(C(F)(F)F)cc(C(F)(F)F)c2)c1)C1CC[C@H](O)C1 (stereo partly drawn) [Example 63, (3S)-N-({3-[3,5-bis(trifluoromethyl)phenyl]phenyl}methyl)-3-hydroxycyclopentane-1-carboxamide] |
| 1570 nM |  | 961 nM |  | O=C(NCc1cccc(-c2cc(C(F)(F)F)cc(C(F)(F)F)c2)c1)C1CC[C@@H](O)C1 (stereo partly drawn) [Example 64, (3R)-N-({3-[3,5-bis(trifluoromethyl)phenyl]phenyl}methyl)-3-hydroxycyclopentane-1-carboxamide] |
| 477 nM |  | 351 nM |  | O=C(NCc1cccc(-c2cc(C(F)(F)F)cc(C(F)(F)F)c2)c1)C1CC[C@@H](F)C1 (stereo partly drawn) [Example 65, (3R)-N-({3-[3,5-bis(trifluoromethyl)phenyl]phenyl}methyl)-3-fluorocyclopentane-1-carboxamide] |
